Numbers after ± are expanded uncertainties.
Assay: molar heat capacity at constant pressure; xn = mol fraction of the nth substance listed
Conditions: 100 kPa, Liquid, Small sample (50 mg) DSC

CN1CCCC1=O [N-methylpyrrolidone] + c1ccccc1
molar heat capacity at constant pressure [J/K/mol]
Conditions	293.15 K	298.15 K	303.15 K
x1 = 0.0787	137.73 ± 2.8	139.51 ± 2.8	140.9 ± 2.8
x1 = 0.1156	139.63 ± 2.8	141.42 ± 2.8	142.83 ± 2.9
x1 = 0.168	142.27 ± 2.9	144.04 ± 2.9	145.46 ± 2.9
x1 = 0.1983	143.75 ± 2.9	145.51 ± 2.9	146.92 ± 2.9
x1 = 0.2249	145.03 ± 2.9	146.77 ± 2.9	148.18 ± 3
x1 = 0.2634	146.83 ± 2.9	148.55 ± 3	149.94 ± 3
x1 = 0.3065	148.78 ± 3	150.46 ± 3	151.83 ± 3
x1 = 0.3325	149.91 ± 3	151.58 ± 3	152.93 ± 3.1
x1 = 0.3617	151.15 ± 3	152.8 ± 3.1	154.13 ± 3.1
x1 = 0.4106	153.13 ± 3.1	154.74 ± 3.1	156.04 ± 3.1
x1 = 0.4367	154.13 ± 3.1	155.73 ± 3.1	157.02 ± 3.1
x1 = 0.4635	155.13 ± 3.1	156.71 ± 3.1	157.98 ± 3.2
x1 = 0.5008	156.45 ± 3.1	158.01 ± 3.2	159.26 ± 3.2
x1 = 0.5598	158.37 ± 3.2	159.91 ± 3.2	161.13 ± 3.2
x1 = 0.5952	159.42 ± 3.2	160.95 ± 3.2	162.15 ± 3.2
x1 = 0.6245	160.24 ± 3.2	161.75 ± 3.2	162.94 ± 3.3
x1 = 0.6616	161.18 ± 3.2	162.69 ± 3.2	163.85 ± 3.3
x1 = 0.7099	162.28 ± 3.2	163.76 ± 3.3	164.9 ± 3.3
x1 = 0.7494	163.06 ± 3.3	164.51 ± 3.3	165.62 ± 3.3
x1 = 0.7748	163.51 ± 3.3	164.93 ± 3.3	166.02 ± 3.3
x1 = 0.8011	163.92 ± 3.3	165.31 ± 3.3	166.38 ± 3.3
x1 = 0.8319	164.35 ± 3.3	165.68 ± 3.3	166.72 ± 3.3
x1 = 0.8767	164.84 ± 3.3	166.08 ± 3.3	167.06 ± 3.3
x1 = 0.9152	165.15 ± 3.3	166.28 ± 3.3	167.2 ± 3.3

Cc1cccc(Cl)c1 [3-chlorotoluene] + c1ccccc1
molar heat capacity at constant pressure [J/K/mol]
Conditions	293.15 K	298.15 K	303.15 K
x2 = 0.1056	169.49 ± 3.4	170.68 ± 3.4	171.79 ± 3.4
x2 = 0.1477	167.26 ± 3.4	168.43 ± 3.4	169.51 ± 3.4
x2 = 0.1746	165.85 ± 3.3	167.02 ± 3.3	168.08 ± 3.4
x2 = 0.2065	164.21 ± 3.3	165.37 ± 3.3	166.4 ± 3.3
x2 = 0.2347	162.78 ± 3.3	163.93 ± 3.3	164.95 ± 3.3
x2 = 0.2856	160.26 ± 3.2	161.4 ± 3.2	162.4 ± 3.2
x2 = 0.3148	158.85 ± 3.2	160 ± 3.2	160.98 ± 3.2
x2 = 0.3452	157.42 ± 3.1	158.56 ± 3.2	159.53 ± 3.2
x2 = 0.3899	155.37 ± 3.1	156.52 ± 3.1	157.48 ± 3.1
x2 = 0.4132	154.33 ± 3.1	155.48 ± 3.1	156.44 ± 3.1
x2 = 0.4499	152.73 ± 3	153.89 ± 3.1	154.85 ± 3.1
x2 = 0.4967	150.76 ± 3	151.94 ± 3	152.9 ± 3.1
x2 = 0.5231	149.69 ± 3	150.88 ± 3	151.84 ± 3
x2 = 0.5505	148.6 ± 3	149.81 ± 3	150.77 ± 3
x2 = 0.5836	147.32 ± 3	148.55 ± 3	149.52 ± 3
x2 = 0.6335	145.46 ± 2.9	146.73 ± 2.9	147.72 ± 3
x2 = 0.6625	144.42 ± 2.9	145.71 ± 2.9	146.71 ± 2.9
x2 = 0.6988	143.15 ± 2.9	144.47 ± 2.9	145.5 ± 2.9
x2 = 0.7207	142.41 ± 2.9	143.74 ± 2.9	144.78 ± 2.9
x2 = 0.7756	140.58 ± 2.8	141.98 ± 2.8	143.06 ± 2.9
x2 = 0.8045	139.65 ± 2.8	141.08 ± 2.8	142.18 ± 2.8
x2 = 0.8466	138.32 ± 2.8	139.8 ± 2.8	140.94 ± 2.8
x2 = 0.8845	137.14 ± 2.7	138.67 ± 2.8	139.84 ± 2.8
x2 = 0.9197	136.05 ± 2.7	137.63 ± 2.8	138.84 ± 2.8

Cc1ccc(Cl)cc1 [4-chlorotoluene] + c1ccccc1
molar heat capacity at constant pressure [J/K/mol]
Conditions	293.15 K	298.15 K	303.15 K
x2 = 0.0912	170.37 ± 3.4	172.42 ± 3.5	174.55 ± 3.5
x2 = 0.1226	168.6 ± 3.4	170.58 ± 3.4	172.63 ± 3.5
x2 = 0.1657	166.22 ± 3.3	168.12 ± 3.4	170.06 ± 3.4
x2 = 0.2012	164.3 ± 3.3	166.15 ± 3.3	168.01 ± 3.4
x2 = 0.2374	162.4 ± 3.2	164.19 ± 3.3	165.99 ± 3.3
x2 = 0.2675	160.86 ± 3.2	162.61 ± 3.2	164.35 ± 3.3
x2 = 0.3135	158.57 ± 3.2	160.26 ± 3.2	161.93 ± 3.2
x2 = 0.3456	157.02 ± 3.1	158.69 ± 3.2	160.3 ± 3.2
x2 = 0.3702	155.87 ± 3.1	157.51 ± 3.1	159.08 ± 3.2
x2 = 0.4231	153.47 ± 3.1	155.06 ± 3.1	156.56 ± 3.1
x2 = 0.4657	151.63 ± 3	153.19 ± 3.1	154.63 ± 3.1
x2 = 0.5093	149.83 ± 3	151.35 ± 3	152.74 ± 3
x2 = 0.5346	148.82 ± 3	150.33 ± 3	151.68 ± 3
x2 = 0.5723	147.36 ± 3	148.85 ± 3	150.16 ± 3
x2 = 0.6022	146.25 ± 2.9	147.72 ± 3	148.99 ± 3
x2 = 0.6357	145.04 ± 2.9	146.49 ± 2.9	147.73 ± 3
x2 = 0.6701	143.84 ± 2.9	145.27 ± 2.9	146.49 ± 2.9
x2 = 0.6989	142.86 ± 2.9	144.29 ± 2.9	145.48 ± 2.9
x2 = 0.7224	142.08 ± 2.8	143.51 ± 2.9	144.68 ± 2.9
x2 = 0.7564	140.98 ± 2.8	142.41 ± 2.9	143.56 ± 2.9
x2 = 0.8096	139.31 ± 2.8	140.75 ± 2.8	141.89 ± 2.8
x2 = 0.8213	138.95 ± 2.8	140.4 ± 2.8	141.54 ± 2.8
x2 = 0.8543	137.95 ± 2.8	139.41 ± 2.8	140.56 ± 2.8
x2 = 0.8886	136.92 ± 2.7	138.42 ± 2.8	139.57 ± 2.8

Reference: the NIST ThermoML archive (doi:10.1016/j.jct.2014.12.022)
